Source: US20200113852A1, “METHODS OF PATIENT SELECTION AND TREATING TRXR- OR PRDX-OVEREXPRESSED CANCERS” (TRIACT THERAPEUTICS, INC., priority 2017, published 2020)
Like-named read-outs stand apart in the source and are kept apart here.

Experiments:
[1] = test system: JNK, p38MAPK in MDA-MB-453 cells; assay: Cell death signaling western blots (phospho-JNK, phospho-p38MAPK); conditions: MDA-MB-453, 100 μM
Protocol: Cells extracts were analyzed by SDS-PAGE either under reducing conditions or under non-reducing conditions in the case of Trx blot followed by blots anti-phospho-JNK, anti-phospho-p38MAPK, anti-cleaved-PARP and anti-Trx. Results are representative of three independent experiments.
After 2 h at 4° C., lysates were clarified by centrifugation and protein amounts were measured using the BCA assay (Pierce, Thermo scientific).
Equal amounts of proteins were resolved by SDS-PAGE under either non-reducing or reducing (5% 2-mercaptoethanol, 20 min at 60° C.) conditions, using 4-20% gels (Novex, Invitrogen), then subjected to semi-dry electrophoretic transfer onto nitrocellulose membranes.

TrxR1 = target: T1, TrxR1 (Homo sapiens, UniProt Q16881); assay: Mass spectrometry of immunoprecipitated TrxR1 modified by Iniparib in HCT116 cells; format: cell-based; design: TrxR1 and TrxR2 were immunoprecipitated from octylglucoside cell extracts (12 mg proteins); endogenous in cells; host or cells: HCT116 (BSO-pretreated); conditions: for TrxR1 modified on Sec residue: 100 μM, GSH-depleted HCT116
T1 sequence (Q16881 1-499 isoform Q16881-5): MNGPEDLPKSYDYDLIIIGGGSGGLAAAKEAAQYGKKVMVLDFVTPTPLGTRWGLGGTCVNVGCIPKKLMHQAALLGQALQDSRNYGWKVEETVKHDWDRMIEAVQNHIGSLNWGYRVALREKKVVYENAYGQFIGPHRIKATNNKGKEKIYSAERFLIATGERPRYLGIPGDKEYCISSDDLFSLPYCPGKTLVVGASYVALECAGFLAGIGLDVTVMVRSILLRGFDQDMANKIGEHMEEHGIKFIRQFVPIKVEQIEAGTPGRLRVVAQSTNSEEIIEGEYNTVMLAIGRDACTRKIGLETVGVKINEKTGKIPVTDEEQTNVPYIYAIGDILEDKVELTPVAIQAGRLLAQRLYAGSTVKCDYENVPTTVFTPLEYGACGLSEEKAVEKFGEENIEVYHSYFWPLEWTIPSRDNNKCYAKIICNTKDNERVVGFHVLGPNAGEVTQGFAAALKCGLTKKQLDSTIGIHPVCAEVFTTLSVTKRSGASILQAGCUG
Protocol: After separation by SDS-PAGE under reducing conditions and PageBlue® protein staining (Thermo scientific), bands of interest were excised, reduced with DTT, alkylated with iodoacetamide and in-gel digested with trypsin (Promega), according to the method of Shevchenko et al. (24). Peptides were extracted with 50 mM ammonium bicarbonate and 50% acetonitrile in 0.2% formic acid and analyzed by Nano LC-MS/MS after partial evaporation in a speed-vac concentrator. LC-MS/MS experiments were performed on an NanoAcquity UPLC (Waters) coupled to a hybrid LTQ Orbitrap Velos mass spectrometer (Thermo Fisher Scientific) equipped with a nanoelectrospray source. Tryptic digests were loaded onto a nanoAcquity UPLC Trap column (Symmetry C18, 5 μm, 180 μm×20 mm, Waters) and washed with 0.2% FA at 20 μl/min for 5 min. Peptides were then eluted on a C18 reverse-phase nanoAcquity column (BEH130 C18, 1.7 μm, 75 μm×250 mm, Waters) with a linear gradient of 7-30% solvent B (H2O/CH3CN/HCOOH, 10:90:0.2, by vol.) for 85 min, 30-90% solvent B for 10 min, and 90% solvent B for 5 min, at a flow rate of 250 nL/min. The mass spectrometer was operated in the data-dependent mode to automatically switch between MS and MS/MS acquisition. Survey full scan MS spectra (m/z 300-1,600) were acquired in the Orbitrap with a resolution of 60,000 at m/z 400. The AGC was set to 1×10^6 with a maximum injection time of 100 ms. The most intense ions (up to 20) were then isolated for fragmentation in the LTQ linear ion trap with normalized collision energy of 28% at the default activation q of 0.25 with an AGC of 5×10^3 and a maximum injection time of 200 ms. The dynamic exclusion time window was set to 80 s. LC-MS/MS data, acquired using the Xcalibur software (Thermo-Fisher Scientific), were processed using a homemade Visual Basic program software developed using XRawfile libraries (distributed by Thermo-Fisher Scientific) to generate a MS/MS peak list (MGF file) which will be used for database searching. This MGF file contained the exact parent mass and the retention time (RT) associated with each MS/MS spectrum. The exact parent mass is the 12C isotope ion mass of the most intense isotopic pattern detected on the high resolution Orbitrap MS parallel scan and included in the MS/MS selection window. The RT is issued from the LTQ-MS/MS scan. Database searches were done using our internal MASCOT server (version 2.1, matrix Science) using the SwissProt human database. […] The precursor mass tolerance was set to 5 ppm and the fragment ion tolerance was set to 0.5 Da. The number of missed cleavage sites for trypsin was set to 3. Mascot result files (“.dat” files) were imported into Scaffold software. Scaffold (version 3.4.5, Proteome software Inc., Portland, Oreg.) was used to validate MS/MS based peptide and protein identifications. Queries were also used for XTandem parallel Database Search. The compiled results of both database searches were exported.

HCT116 cells [2] = assay: Cytotoxicity assay (WST-1 cell viability); format: cell-based, human; conditions: for cytotoxicity: HCT116 without GSH depletion; for IC50: Homo sapiens
Protocol: Cell viability following drug treatments was assessed using WST-1 cell proliferation assay (Roche) Briefly, cells were plated into 96-well plates with 8,000 (HCT116) or 20,000 (MDA-MB-453) cells per well and allowed to attach overnight. Cells were then preincubated for 5 h in the presence or absence of 1 mM BSO. […] After 3 h of incubation at 37° C., the amount of formazan dye was quantified by measuring the optical density at 450 nm with a scanning multiwell spectrophotometer (PerkinElmer).
Cell viability following drug treatments was assessed using WST-1 cell proliferation assay (Roche). Briefly, cells were plated into 96-well plates with 8,000 (HCT116) or 20,000 (MDA-MB-453) cells per well and allowed to attach overnight. Cells were then preincubated for 5 h in the presence or absence of 1 mM BSO. […] After 3 h of incubation at 37° C., the amount of formazan dye was quantified by measuring the optical density at 450 nm with a scanning multiwell spectrophotometer (PerkinElmer).

HCT116 cells [3] = assay: Fluorescence microscopy, subcellular localization of Iniparib-biotin targets; format: cell-based, human; conditions: HCT116, 30 min after adding Iniparib-biotin
Protocol: HCT116 cells were platted on polylysine D coated thin glass bottom microscope chambers (Ibidi). […] For subcellular localization experiments mitochondria were stained with 100 nM Mitotracker Red CMX (Molecular probes) added for 10 min. This stain was performed before fixation (Paraformaldehyde 3.7% in PBS pH 7.4). Biotin was developed, after Triton X100 (0.3% in PBS, 15 min) permeabilization and saturation (1% BSA+1% gelatin in PBS: saturation buffer), with Alexa-488 streptavidin (Molecular Probes) conjugate (1 μg/ml in saturation buffer). Nuclei were stained with Hoechst (Molecular Probes) and samples mounted in anti-fading solution (Ibidi).
Cells were imaged with a PLAN NeoFluar 40× (NA 1.3) or 100×, (NA 1.46) oil objectives on a LSM510 (Zeiss) confocal microscope. Laser lines, filters and dichroic mirrors were selected for maximal separation of the green (Ex./Em. 488/530 nm) and the red fluorescence (Ex./Em. 543/LP 585 nm). Nuclei were observed (Ex./Em. 405/460 nm). For co-localization stacks of images separated by 400 nm along z-axis were acquired. Post-capture processing was done using LSM510 software, and Photoshop (Adobe) was used to make linear adjustments to brightness and contrast.

SMILES	JNK activation, time of peak [1] [h]	TrxR1 modified on both adjacent Cys and Sec residues (TrxR1; 1 h) [%]	TrxR1 modified on Sec residue (TrxR1; 1 h) [%]	5 other TrxR1 peptides modified on Cys residues, altogether (TrxR1; 4 h)	TrxR1 modified on both adjacent Cys and Sec residues (TrxR1; 4 h) [%]	TrxR1 modified on Sec residue (TrxR1; 4 h) [%]	cytotoxicity (HCT116 cells [2]; after 24 h, concentrations up to 100 μM)	cytotoxicity (HCT116 cells [2]; up to 100 μM of Iniparib)	IC50 (HCT116 cells [2]; HCT-116, 24 h, read-out: IC50 (cytotoxicity), HCT116 cells not depleted of GSH, transitory or 24 h exposure) [µM]	IC50 (HCT116 cells [2]; HCT-116, read-out: IC50 (cytotoxicity), HCT116, GSH depletion (Example 2)) [µM]	IC50 (HCT116 cells [2]; HCT-116, read-out: IC50 (cytotoxicity), HCT116 after GSH depletion with BSO (Example 1)) [µM]	subcellular localization of labeled proteins (HCT116 cells [3])
NC(=O)c1ccc(I)c([N+](=O)[O-])c1 [Iniparib, 4-iodo-3-nitrobenzamide]	10	0.8	50	less than 7 % of the total protein	4.7	67	marginal cytotoxicity	no cytotoxicity was detected	> 100	8.2	8.4 ± 0.5	–
O=C(CCCC[C@@H]1SC[C@@H]2NC(=O)N[C@@H]21)NCCNC(=O)c1ccc(I)c([N+](=O)[O-])c1 [Iniparib-biotin, 4-iodo-3-nitro-N-(2-(5-((3 aS,4S,6aR)-2-oxohexahydro-1H-thieno[3,4-d]imidazol-4-yl)pentanamido)ethyl)benzamide]	–	–	–	–	–	–	–	–	–	–	–	cellular proteins were labeled in the cytosol as well as in the nucleus and cytoplasmic structures
